From article PMC6335172 (Acta Physiologica (Oxford, England), 2018)
Where “and” joins values, the source holds several entries; their conditions need not be identical. Equal values may be shown once. Read-outs that look alike come from different tables or passages of the source.

How the values were obtained:
[1] = molecular target: wild type human I Ks channel (Kv7.1/KCNE1) (Homo sapiens, UniProt P51787); assay: Two-electrode voltage clamp of I Ks channel; type: cell-based; settings: pH 9.0, mean ± SEM; for Max ΔV 0.5 (shift of voltage dependence of activation) / Max I/I 0 (relative increase in K+ current at 0 mV) / Max G max/G max0 (maximal conductance normalized to control): fitted maximum from dose response; for Max ΔV 0.5 (shift of voltage dependence of activation): G-V from tail currents
[2] = test system: I Ks channel (coexpression of Kv7.1 and KCNE1); settings: cited from earlier work; for Effect on the V 0.5 of the I Ks channel at pH 7.5: Kv7.1 co-expressed with KCNE1, pH 7.5
[3] = test system: Kv7.1 channel; settings: Kv7.1 without KCNE1; cited from earlier work
[4] = read-out: K m of ΔV 0.5, Hill fit of dose response
[5] = K m of ΔV 0.5, Hill fit of dose response

Sequence of wild type human I Ks channel (Kv7.1/KCNE1) (P51787 whole entry): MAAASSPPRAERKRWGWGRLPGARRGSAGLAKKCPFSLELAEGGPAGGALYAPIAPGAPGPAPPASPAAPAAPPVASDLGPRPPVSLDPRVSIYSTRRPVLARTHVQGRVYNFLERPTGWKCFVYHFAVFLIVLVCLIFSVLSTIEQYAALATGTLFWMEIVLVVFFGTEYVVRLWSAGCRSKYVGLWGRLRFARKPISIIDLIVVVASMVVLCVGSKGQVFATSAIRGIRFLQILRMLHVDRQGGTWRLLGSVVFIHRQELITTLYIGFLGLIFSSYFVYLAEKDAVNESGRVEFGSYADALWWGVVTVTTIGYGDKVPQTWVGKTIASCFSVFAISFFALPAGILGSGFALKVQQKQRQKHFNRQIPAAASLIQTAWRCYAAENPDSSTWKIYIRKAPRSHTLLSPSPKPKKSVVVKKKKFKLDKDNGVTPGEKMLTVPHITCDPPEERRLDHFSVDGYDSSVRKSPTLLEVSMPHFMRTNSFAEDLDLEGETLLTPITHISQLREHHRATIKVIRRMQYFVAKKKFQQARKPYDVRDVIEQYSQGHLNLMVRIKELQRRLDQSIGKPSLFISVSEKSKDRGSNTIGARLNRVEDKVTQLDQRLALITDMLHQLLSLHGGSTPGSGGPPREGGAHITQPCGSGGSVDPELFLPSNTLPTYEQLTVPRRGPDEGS

Row | Compound | Max ΔV 0.5 (shift of voltage dependence of activation) [1] | Max I/I 0 (relative increase in K+ current at 0 mV) [1] | Max G max/G max0 (maximal conductance normalized to control) [1] | EC50 ([1]; read-out: K m of G max, Hill fit of dose response) | EC50 [1, 4] | EC50 [1, 5] | EC50 ([1]; K m of G max, Hill fit of dose response) | Effect on the V 0.5 of the I Ks channel at pH 7.5 [2] | Shift of the voltage dependence of activation (V 0.5) of the Kv7.1 channel [3] | Effect on K+ current when Kv7.1 is co-expressed with KCNE1, pH 7.5 ([2]; pH 7.5)
1 | CCC=CCC=CCC=CCC=CCC=CCCCCCC(=O)O [22:5Δ7,10,13,16,19, Docosapentaenoic acid (7,10,13,16,19)] | −4 ± 0.13 mV | 1.6 ± 0.05 | 1.2 ± 0.01 | 1.2 ± 1.7 µM | 11.1 ± 0.6 µM |  |  |  |  | 
2 | CCCCC/C=C\C/C=C\C/C=C\C/C=C\CCCC(=O)NCCS(=O)(=O)O [N‐AT, N‐arachidonoyl taurine] |  |  |  |  |  |  |  | retain the ability to shift the voltage dependence |  | 
3 | CCC=CCC=CCC=CCCCC(=O)O [14:3Δ5,8,11, Tetradecatrienoic acid (5,8,11)] | 0.80 ± 6.5 mV | 1.1 ± 0.15 | 0.84 ± 0.1 |  |  |  |  |  |  | 
4 | CC/C=C\C/C=C\C/C=C\C/C=C\C/C=C\CCCC(=O)O [20:5Δ5,8,11,14,17, Eicosapentaenoic acid (5,8,11,14,17)] | −25 ± 4.6 mV | 2.4 ± 0.05 | 1.0 ± 0.1 |  |  | 9.8 ± 4.4 µM |  |  |  | 
5 | CC/C=C\C/C=C\C/C=C\C/C=C\C/C=C\C/C=C\CCC(=O)O [22:6Δ4,7,10,13,16,19, Docosahexaenoic acid (4,7,10,13,16,19)] | −20.2 ± 0.1 mV | 3.2 ± 0.1 and 3.2 ± 0.01 | 1.5 ± 0.2 |  |  | 3.1 ± 0.1 µM | 1.8 µM | no effect on the V 0.5 | to more negative voltages | abolished

Continued, in another order:

Row | Max ΔV 0.5 (shift of voltage dependence of activation) [1] | Max I/I 0 (relative increase in K+ current at 0 mV) [1] | Max G max/G max0 (maximal conductance normalized to control) [1] | EC50 ([1]; read-out: K m of G max, Hill fit of dose response) | EC50 [1, 4] | EC50 [1, 5] | EC50 ([1]; K m of G max, Hill fit of dose response) | Compound | Effect on the V 0.5 of the I Ks channel at pH 7.5 [2] | Shift of the voltage dependence of activation (V 0.5) of the Kv7.1 channel [3] | Effect on K+ current when Kv7.1 is co-expressed with KCNE1, pH 7.5 ([2]; pH 7.5)
6 | −29.8 ± 1.7 mV | 3.6 ± 0.6 | 1.06 ± 0.02 |  |  |  |  | CCCCC/C=C\C/C=C\CCCCCCCC(=O)O [18:2Δ9,12, Linoleic acid (9,12)] |  |  | 
7 | −13.4 ± 0.6 mV | 2.1 ± 0.02 | 0.9 ± 0.2 |  | 7.2 ± 0.5 µM |  |  | CCC=CCC=CCC=CCCCCCC(=O)O [16:3Δ7,10,13, Hexadecatrienoic acid (7,10,13)] |  |  | 
